For experiment [1], the target named is T1, c-Met (cytoplasmic domain) (Homo sapiens, UniProt P08581).
T1 construct: 10 ng/mL c-Met (cytoplasmic domain, Invitrogen Corporation #PV3143); purchased Invitrogen Corporation PV3143
The experiment in a line: c-Met Kinase Assay (same methods as for ALK, with modifications). It counts as biochemical. In outline: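 Steps: coat wells with PLC-γ (10 μg/mL, Tris-buffered saline); add 10 ng/mL c-Met cytoplasmic domain to initiate; incubate 15 min, 37° C; detect phosphoproduct via Eu-N1 PT66 antibody.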

For experiment [2], the target named is T2, baculovirus-expressed ALK (Homo sapiens, UniProt Q9UM73).
T2 construct: host or cells: baculovirus expression system
Briefly: ALK Kinase Assay (ELISA-type, time-resolved fluorescence). It counts as biochemical. In outline:
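Wells were coated with phospholipase C-γ at 10 μg/mL in Tris-buffered saline. Adding 30 ng/ml enzyme started the reaction, which ran at 37° C for 15 minutes before Eu-N1 PT66 antibody detection. Percent inhibition versus log10 concentration gave IC50 by variable-slope fit.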
Background: ELISA stands for enzyme-linked immunosorbent assay.

Where [3] appears, read: c-Met kinase inhibition, 1 μM ATP, read-out: cMet Activity.
The mark [4] stands for this setting: ALK kinase inhibition, 1 μM ATP, read-out: ALK Activity.
Where [5] appears, read: 1 μM ATP (Km level), 10 ng/mL c-Met, read-out: cMet Activity (c-Met kinase inhibition, IC50 class).
Where [6] appears, read: 1 μM ATP (Km level), 30 ng/ml ALK, 37° C., 15 minutes, read-out: ALK Activity (ALK kinase inhibition, IC50 class).
Where [7] appears, read: c-Met kinase inhibition, 1 μM ATP (Km level), read-out: cMet Activity.
The mark [8] stands for this setting: ALK kinase inhibition, 1 μM ATP (Km level), read-out: ALK Activity.
[9] abbreviates: 1 μM ATP (Km level), read-out: cMet Activity (c-Met Kinase Inhibition, IC50).
Setting [10] is: 1 μM ATP (Km level), read-out: ALK Activity (ALK Kinase Inhibition, IC50).

Like-named read-outs stand apart in the source and are kept apart here. Some results are limits rather than exact numbers.

T2 sequence (Q9UM73 19-1620): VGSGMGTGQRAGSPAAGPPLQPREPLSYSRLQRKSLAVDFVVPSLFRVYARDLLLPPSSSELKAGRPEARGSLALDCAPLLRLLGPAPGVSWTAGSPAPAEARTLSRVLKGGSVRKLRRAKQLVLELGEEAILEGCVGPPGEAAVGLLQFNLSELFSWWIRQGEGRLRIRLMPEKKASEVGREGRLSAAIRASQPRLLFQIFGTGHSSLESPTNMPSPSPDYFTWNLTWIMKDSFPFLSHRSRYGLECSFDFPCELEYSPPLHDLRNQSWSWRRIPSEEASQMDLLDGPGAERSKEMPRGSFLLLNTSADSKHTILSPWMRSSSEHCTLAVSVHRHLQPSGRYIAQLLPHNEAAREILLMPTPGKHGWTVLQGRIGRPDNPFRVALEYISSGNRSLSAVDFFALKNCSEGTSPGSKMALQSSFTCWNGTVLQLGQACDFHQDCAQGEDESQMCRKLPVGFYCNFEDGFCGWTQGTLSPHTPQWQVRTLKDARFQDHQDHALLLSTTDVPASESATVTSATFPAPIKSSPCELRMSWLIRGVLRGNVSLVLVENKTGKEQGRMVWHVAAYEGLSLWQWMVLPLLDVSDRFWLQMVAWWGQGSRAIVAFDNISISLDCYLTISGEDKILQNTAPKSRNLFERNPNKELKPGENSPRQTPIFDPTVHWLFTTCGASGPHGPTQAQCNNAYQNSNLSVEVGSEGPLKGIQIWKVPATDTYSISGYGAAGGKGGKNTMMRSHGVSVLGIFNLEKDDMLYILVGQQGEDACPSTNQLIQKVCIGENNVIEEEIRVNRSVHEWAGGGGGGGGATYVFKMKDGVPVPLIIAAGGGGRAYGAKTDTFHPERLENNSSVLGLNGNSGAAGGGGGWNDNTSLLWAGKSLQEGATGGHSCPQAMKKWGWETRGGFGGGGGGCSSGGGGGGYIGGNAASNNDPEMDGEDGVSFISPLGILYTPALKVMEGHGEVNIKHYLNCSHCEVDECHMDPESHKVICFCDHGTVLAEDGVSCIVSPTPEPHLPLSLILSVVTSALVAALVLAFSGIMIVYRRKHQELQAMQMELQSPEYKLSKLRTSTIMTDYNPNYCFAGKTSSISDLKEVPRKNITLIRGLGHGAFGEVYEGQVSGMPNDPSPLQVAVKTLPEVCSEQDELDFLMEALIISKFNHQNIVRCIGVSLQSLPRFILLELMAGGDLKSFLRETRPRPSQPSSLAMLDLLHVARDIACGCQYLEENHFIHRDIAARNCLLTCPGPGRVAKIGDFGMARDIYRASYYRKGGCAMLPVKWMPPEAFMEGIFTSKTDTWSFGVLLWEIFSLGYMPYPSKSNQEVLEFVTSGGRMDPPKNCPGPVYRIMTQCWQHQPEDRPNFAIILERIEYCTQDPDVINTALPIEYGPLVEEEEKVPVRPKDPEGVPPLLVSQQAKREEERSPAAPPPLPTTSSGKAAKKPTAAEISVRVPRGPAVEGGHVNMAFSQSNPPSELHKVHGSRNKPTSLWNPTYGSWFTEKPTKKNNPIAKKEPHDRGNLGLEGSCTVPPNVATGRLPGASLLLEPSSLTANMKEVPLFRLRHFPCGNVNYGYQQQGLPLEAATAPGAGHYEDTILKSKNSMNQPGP
T1 sequence (P08581 956-1390 limits assumed): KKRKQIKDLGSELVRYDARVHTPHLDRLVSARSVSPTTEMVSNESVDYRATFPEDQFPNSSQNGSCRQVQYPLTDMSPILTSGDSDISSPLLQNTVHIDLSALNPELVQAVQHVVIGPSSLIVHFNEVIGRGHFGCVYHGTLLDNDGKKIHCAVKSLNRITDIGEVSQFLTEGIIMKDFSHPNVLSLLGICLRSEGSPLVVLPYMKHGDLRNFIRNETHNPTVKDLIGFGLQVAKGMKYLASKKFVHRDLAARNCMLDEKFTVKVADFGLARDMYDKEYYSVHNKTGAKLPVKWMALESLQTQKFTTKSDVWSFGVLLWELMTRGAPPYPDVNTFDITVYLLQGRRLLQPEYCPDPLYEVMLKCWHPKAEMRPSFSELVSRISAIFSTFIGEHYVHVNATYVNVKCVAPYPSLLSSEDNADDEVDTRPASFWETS

With `COc1cc2c(cc1Nc1ncc(Cl)c(N[C@@H]3CCCC[C@H]3NS(C)(=O)=O)n1)NC(=O)CN(CC1CC1)C2` [Example 1666, N-(1R,2R)-{2-[5-Chloro-2-(4-cyclopropylmethyl-7-methoxy-2-oxo-2,3,4,5-tetrahydro-1H-benzo[e][1,4]diazepin-8-ylamino)-pyrimidin-4-ylamino]-cyclohexyl}-methanesulfonamide], the IC50 in experiment [1] (setting [3]) is more than 10000 nM; in experiment [2] (setting [4]), less than 100 nM.
On to `CNC(=O)C1(Nc2nc(Nc3cc4c(cc3OC)CCN(CCOC)CC4)ncc2Cl)CC1` [Example 1196, 1-{5-Chloro-2-[8-methoxy-3-(2-methoxy-ethyl)-2,3,4,5-tetrahydro-1H-benzo[d]azepin-7-ylamino]-pyrimidin-4-ylamino}-cyclopropanecarboxylic acid methylamide], for which the IC50 in experiment [1] (setting [5]) is more than 10000 nM; in experiment [2] (setting [6]), 1000 to 10000 nM.
Consider `CN1C(=O)OCCc2cc(Nc3ncc(Cl)c(Nc4c(F)cccc4OCC(O)CO)n3)ccc21` (centres unmarked) [Example 1717, 2-{5-Chloro-4-[2-(2,3-dihydroxy-propoxy)-6-fluoro-phenylamino]-pyrimidin-2-ylamino}-5-methyl-8,9-dihydro-5H-7-oxa-5-aza-benzocyclohepten-6-one], for which the figures for the IC50 in experiment [1] (setting [3]) and in experiment [2] (setting [4]) were less than 100 nM and 1000 to 10000 nM, respectively.
On to `CCN1CC2CCC(C1)c1cc(Nc3ncc(Cl)c(Nc4ccccc4S(=O)(=O)NC)n3)ccc12` (centres unmarked) [Example 272, 2-[5-Chloro-2-(10-ethyl-10-aza-tricyclo[6.3.2.0*2,7*]trideca-2,4,6-trien-4-ylamino)-pyrimidin-4-ylamino]-N-methyl-benzenesulfonamide], for which the IC50 in experiment [1] (setting [7]) was 100 to 1000 nM; in experiment [2] (setting [8]), less than 100 nM.
Consider `CNC(=O)c1ccccc1Nc1nc(Nc2ccc3c(c2)N(C)CCN(CCOC)C3)ncc1Cl` [Example 484, 2-{5-Chloro-2-[4-(2-methoxy-ethyl)-1-methyl-2,3,4,5-tetrahydro-1H-benzo[e][1,4]diazepin-8-ylamino]-pyrimidin-4-ylamino}-N-methyl-benzamide], for which the IC50 in experiment [1] (setting [7]) and in experiment [2] (setting [8]) was less than 100 nM each time.
In the case of `CS(=O)(=O)N[C@@H]1CCCC[C@H]1Nc1nc(Nc2ccc3c(c2)CNCCS3)ncc1Cl` [Example 519, N-{(1R,2R)-2-[5-Chloro-2-(6,7,8,9-tetrahydro-5-thia-8-aza-benzocyclohepten-2-ylamino)-pyrimidin-4-ylamino]-cyclohexyl}-methanesulfonamide], the IC50 in experiment [1] (setting [9]) is 1000 to 10000 nM; in experiment [2] (setting [10]), less than 100 nM.
As for `COc1cc2c(cc1Nc1ncc(F)c(Nc3ccc(N4CCOCC4)cc3OC)n1)CCN(CC(=O)N(C)C)CC2` [Example 808, 2-{7-[5-Fluoro-4-(2-methoxy-4-morpholin-4-yl-phenylamino)-pyrimidin-2-ylamino]-8-methoxy-1,2,4,5-tetrahydro-benzo[d]azepin-3-yl}-N,N-dimethyl-acetamide], the results for the IC50 in experiment [1] (setting [9]) and in experiment [2] (setting [10]) were more than 10000 nM and less than 100 nM, respectively.
Take `COc1cc2c(cc1Nc1ncc(Cl)c(Nc3ccc(N4CCOCC4)cc3OC)n1)CCN(CC(F)(F)F)CC2` [Example 249, 5-Chloro-N*4*-(2-methoxy-4-morpholin-4-yl-phenyl)-N*2*-[8-methoxy-3-(2,2,2-trifluoro-ethyl)-2,3,4,5-tetrahydro-1H-benzo[d]azepin-7-yl]-pyrimidine-2,4-diamine]: the IC50 in experiment [1] (setting [7]) was more than 10000 nM; in experiment [2] (setting [8]), less than 100 nM.
Regarding `COc1cc2c(cc1Nc1ncc(Cl)c(Nc3ccc(N(C)C)cc3OC)n1)CCN(Cc1nccn1C)CC2` [Example 1173, 5-Chloro-N*4*-(4-dimethylamino-2-methoxy-phenyl)-N*2*-[8-methoxy-3-(1-methyl-1H-imidazol-2-ylmethyl)-2,3,4,5-tetrahydro-1H-benzo[d]azepin-7-yl]-pyrimidine-2,4-diamine], the figures for the IC50 in experiment [1] (setting [5]) and in experiment [2] (setting [6]) were more than 10000 nM and less than 100 nM, respectively.
As to `CNC(=O)CN1CCc2cc(Nc3ncc(Cl)c(Nc4cc(C(N)=O)ccc4OC)n3)c(OC)cc2CC1` [Example 1138, 3-[5-Chloro-2-(8-methoxy-3-methylcarbamoylmethyl-2,3,4,5-tetrahydro-1H-benzo[d]azepin-7-ylamino)-pyrimidin-4-ylamino]-4-methoxy-benzamide], the IC50 in experiment [1] (setting [5]) was more than 10000 nM; in experiment [2] (setting [6]), 100 to 1000 nM.
With `CNS(=O)(=O)c1ccccc1Nc1nc(Nc2ccc3c(c2)C2CC3CN(CCOC)C2)ncc1Cl` (centres unmarked) [Example 162, 2-{5-Chloro-2-[10-(2-methoxy-ethyl)-10-aza-tricyclo[6.3.1.0*2,7*]dodeca-2,4,6-trien-4-ylamino]-pyrimidin-4-ylamino}-N-methyl-benzenesulfonamide], the results for the IC50 in experiment [1] (setting [7]) and in experiment [2] (setting [8]) were 1000 to 10000 nM and less than 100 nM, respectively.
Take `CCN1CCc2ccc(Nc3ncc(Cl)c(NCC(C)NS(C)(=O)=O)n3)cc2CC1` (centres unmarked) [Example 300, N-{2-[5-Chloro-2-(3-ethyl-2,3,4,5-tetrahydro-1H-benzo[d]azepin-7-ylamino)-pyrimidin-4-ylamino]-1-methyl-ethyl}-methanesulfonamide]: the IC50 in experiment [1] (setting [7]) lay in the range of 1000 to 10000 nM; in experiment [2] (setting [8]), 100 to 1000 nM.
Regarding `COc1cc2c(cc1Nc1ncc(Cl)c(Nc3ccccc3OCC#N)n1)CCOC(=O)N2C` [Example 1516, {2-[5-Chloro-2-(3-methoxy-5-methyl-6-oxo-5,6,8,9-tetrahydro-7-oxa-5-aza-benzocyclohepten-2-ylamino)-pyrimidin-4-ylamino]-phenoxy}-acetonitrile], the IC50 was 1000 to 10000 nM in experiment [1] (setting [3]) and less than 100 nM in experiment [2] (setting [4]).
`CN(C)S(=O)(=O)c1ccccc1Nc1nc(Nc2ccc3c(c2)CCC(N2CCOCC2)CC3)ncc1Cl` (centres unmarked) [Example 1032, 2-[5-Chloro-2-(7-morpholin-4-yl-6,7,8,9-tetrahydro-5H-benzocyclohepten-2-ylamino)-pyrimidin-4-ylamino]-N,N-dimethyl-benzenesulfonamide]: the IC50 in experiment [1] (setting [5]) is 100 to 1000 nM; in experiment [2] (setting [6]) it was less than 100 nM.
For the molecule `COc1ccc(Nc2nc(Nc3ccc4c(c3)CCC(O)CC4)ncc2Cl)c(-n2cccn2)c1` (centres unmarked) [Example 623, 2-[5-Chloro-4-(4-methoxy-2-pyrazol-1-yl-phenylamino)-pyrimidin-2-ylamino]-6,7,8,9-tetrahydro-5H-benzocyclohepten-7-ol], the IC50 was 1000 to 10000 nM in experiment [1] (setting [9]) and less than 100 nM in experiment [2] (setting [10]).
As to `CNC(=O)c1ccccc1Nc1nc(Nc2ccc3c(c2)C2CC3CN(S(C)(=O)=O)C2)ncc1Cl` (centres unmarked) [Example 164, 2-[5-Chloro-2-(10-methanesulfonyl-10-aza-tricyclo[6.3.1.0*2,7*]dodeca-2,4,6-trien-4-ylamino)-pyrimidin-4-ylamino]-N-methyl-benzamide], the IC50 was less than 100 nM in experiment [1] (setting [7]) and 100 to 1000 nM in experiment [2] (setting [8]).
For the molecule `COc1cc2c(cc1Nc1ncc(Cl)c(N[C@@H]3[C@H](C(N)=O)[C@H]4C=C[C@@H]3C4)n1)CCOC(=O)N2C` [Example 1509, (1R,2R,3S,4S)-3-[5-Chloro-2-(3-methoxy-5-methyl-6-oxo-5,6,8,9-tetrahydro-7-oxa-5-aza-benzocyclohepten-2-ylamino)-pyrimidin-4-ylamino]-bicyclo[2.2.1]hept-5-ene-2-carboxylic acid amide], the IC50 in experiment [1] (setting [3]) was more than 10000 nM; in experiment [2] (setting [4]), less than 100 nM.
`CNC(=O)c1cccc(F)c1Nc1nc(Nc2ccc3c(c2)NC(=O)CN(C(=O)OCc2ccccc2)C3)ncc1Cl` [Example 1857, 8-[5-Chloro-4-(2-fluoro-6-methylcarbamoyl-phenylamino)-pyrimidin-2-ylamino]-2-oxo-1,2,3,5-tetrahydro-benzo[e][1,4]diazepine-4-carboxylic acid benzyl ester]: the IC50 in experiment [1] (setting [3]) is less than 100 nM; in experiment [2] (setting [4]), 100 to 1000 nM.
For `CNC(=O)c1ccccc1Nc1nc(Nc2ccc3c(c2)CCN(CCF)CC3)ncc1Cl` [Example 38, 2-{5-Chloro-2-[3-(2-fluoro-ethyl)-2,3,4,5-tetrahydro-1H-benzo[d]azepin-7-ylamino]-pyrimidin-4-ylamino}-N-methyl-benzamide], the IC50 in experiment [1] (setting [7]) and in experiment [2] (setting [8]) was less than 100 nM in each case.
Turning to `COCCOC(=O)c1ccccc1Nc1nc(Nc2cc3c(cc2OC)CCN(CC(C)O)CC3)ncc1Cl` (centres unmarked) [Example 1550, 2-{5-Chloro-2-[3-(2-hydroxy-propyl)-8-methoxy-2,3,4,5-tetrahydro-1H-3-benzazepin-7-ylamino]-pyrimidin-4-ylamino}-benzoic acid 2-methoxy-ethyl ester], the IC50 in experiment [1] (setting [3]) was more than 10000 nM; in experiment [2] (setting [4]), less than 100 nM.
As for `CNC(=O)CN1CCc2cc(Nc3ncc(Cl)c(Nc4ccc(N5CCN(C)CC5)c(C)c4)n3)c(OC)cc2CC1` [Example 798, 2-(7-{5-Chloro-4-[3-methyl-4-(4-methyl-piperazin-1-yl)-phenylamino]-pyrimidin-2-ylamino}-8-methoxy-1,2,4,5-tetrahydro-benzo[d]azepin-3-yl)-N-methyl-acetamide], the IC50 in experiment [1] (setting [9]) is more than 10000 nM; in experiment [2] (setting [10]) it was less than 100 nM.
`CN1C(=O)CCC(C)(C)c2cc(Nc3ncc(Cl)c(N[C@@H]4CCCC[C@H]4N(C)S(C)(=O)=O)n3)ccc21` [Example 1680, N-{(1R,2R)-2-[5-Chloro-2-(1,5,5-trimethyl-2-oxo-2,3,4,5-tetrahydro-1H-benzo[b]azepin-7-ylamino)-pyrimidin-4-ylamino]-cyclohexyl}-N-methyl-methanesulfonamide]: the IC50 in experiment [1] (setting [3]) is 100 to 1000 nM; in experiment [2] (setting [4]), less than 100 nM.

The record behind these values is US8148391B2 (Cephalon, Inc., priority 2006, dated 2012).
